Consider seven molecules from the supplement of paper PMC11061612.

Test in all cases: Bliss excess, mean over the matrix (fraction); higher = more synergy
In test [1] the test system is SNU-387 (Hepatocellular Carcinoma). The method in brief: (§1)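 Cell lines in DMEM/F12 or RPMI with 10% FBS were plated in 1536-well plates, held 24 hours at 37°C, 5% CO2, then given two-drug dose matrices for 72 hours (DMSO typically 0.2%). Viability was read by CellTiter-Glo 2.0 luminescence and scaled as inhibition from 0 (vehicle wells) to 1 (blank wells). Combination Emax is the second-highest inhibition in the matrix; Bliss excess is observed combination effect minus expected EA + EB − EA·EB, EA and EB being single-agent effects.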

Test [2] relates to Hey (Ovarian Carcinoma). The method in brief:
as §1

Test [3] concerns OE33 (Esophageal Adenocarcinoma). The method in brief:
as §1

Test [4] deals with G-401 (Other Solid Carcinomas). The gist of the method:
as §1

In test [5] the test system is SW872 (Other Solid Carcinomas). The gist of the method:
as §1

In test [6] the test system is HAL-01 (B-Lymphoblastic Leukemia). The method in brief: as §1
The subject of test [7] is COLO-679 (Melanoma). The method in brief:
as §1

The test system of test [8] is NCI-H1838 (Lung Adenocarcinoma). The gist of the method:
as §1

The subject of test [9] is MV-4-11 (Acute Myeloid Leukemia). The method in brief:
as §1

Test [10] relates to NCI-H650 (Lung Adenocarcinoma). The method in brief:
as §1

Test [11] has as its system HCC1937 (Breast Carcinoma). The gist of the method:
as §1

The subject of test [12] is MOLT-4 (T-Lymphoblastic Leukemia). The gist of the method:
as §1

Test [13] has as its system EW-1 (Ewing's Sarcoma). The gist of the method: as §1
Test [14] has as its system MDA-MB-453 (Breast Carcinoma). The method in brief:
as §1

The subject of test [15] is ML-2 (Acute Myeloid Leukemia). The gist of the method: as §1
For test [16], the system named is A4-Fuk (B-Lymphoblastic Leukemia). The method in brief: as §1
Test [17] deals with NCI-H1993 (Lung Adenocarcinoma). The method in brief: as §1
The test system of test [18] is KOPN-8 (B-Lymphoblastic Leukemia). The gist of the method: as §1
The test system of test [19] is Ca-Ski (Cervical Carcinoma). The method in brief: as §1
Test [20] has as its system SK-N-AS (Neuroblastoma). The gist of the method: as §1

Consider `CCN(CCO)CCCOc1ccc2c(Nc3cc(CC(=O)Nc4cccc(F)c4)[nH]n3)ncnc2c1` [AZD2811] + O=C(c1cc(Cc2n[nH]c(=O)c3ccccc23)ccc1F)N1CCN(C(=O)C2CC2)CC1 [Olaparib] (first compound max 1 µM, 7x7, partner max 10 µM), for which the Bliss excess was -0.0755 in test [1]; 0.0251 in test [2]; -0.0094 in test [3]; 0.0174 in test [4]; 0.017 in test [5]; -0.043 in [6]. The Bliss excess in test [7] is -0.0569; in test [8] it was -0.0348; in test [9], -0.0339; in test [10], -0.003; in test [11], -0.0059; in [12], -0.0029. Moreover, the Bliss excess in test [13] is 0.0008; in [14] it was -0.0253; in [15], -0.0595; in test [16], -0.0212; in test [17] it was -0.0211; in test [18] it was 0.0034. The Bliss excess in test [19] was found to be 0.0242; in test [20], 0.0255.

As for `CN(CCO)CC[C@H](CSc1ccccc1)Nc1ccc(S(=O)(=O)NC(=O)c2ccc(N3CCC([C@@H](O)c4ccccc4-c4ccc(Cl)cc4)CC3)cc2)cc1S(=O)(=O)C(F)(F)F` [AZD4320] + CN(C)CCCOc1ccc(-c2ccc3ncc4c(c3c2)n(C2CCOCC2)c(=O)n4C)cn1 [AZD0156] (first compound max 1 µM, 7x7, partner max 1 µM), the Bliss excess in test [1] is -0.0208; in test [2], -0.0272; in test [3], -0.0312; in test [4] it was -0.0506; in test [5] it was -0.0107; in [6], 0.024. In addition, the Bliss excess in [7] was -0.068; in [8] it was 0.0135; in test [9], -0.034; in test [10], -0.0182; in test [11] it was 0.0007; in [12], 0.0052. For the same molecule, the Bliss excess in test [13] is 0.0527; in test [14] it was -0.0449; in test [15] it was -0.0056; in test [16] it was -0.0077; in test [17], -0.0734; in test [18], -0.052. In addition, the Bliss excess was -0.0173 in [19] and -0.0331 in test [20].

As for `COc1nnc2ccc(N3CCC(c4ccc(OCCN5CCN(C)C(=O)[C@H]5C)cc4)CC3)nn12` [AZD5153] + C=CCn1c(=O)c2cnc(Nc3ccc(N4CCN(C)CC4)cc3)nc2n1-c1cccc(C(C)(C)O)n1 [AZD1775] (first compound max 1 µM, partner max 1 µM), the Bliss excess in [1] is -0.107; in test [2], -0.0997; in test [3], -0.0386; in [4], -0.0526; in [5] it was -0.0374; in test [6], -0.0938. Further, the Bliss excess in [7] is -0.042; in [8] it was -0.0531; in test [9], -0.0114; in [10], -0.0866; in [11] it was -0.0921; in test [12] it was 0.0171. Also, the Bliss excess in test [13] was -0.0484; in test [14], -0.0243; in [15], -0.0214; in [16], -0.109; in test [17], -0.0758; in test [18] it was -0.0267. Moreover, the Bliss excess in [19] is 0.0125; in test [20], -0.056.

Regarding `COc1nnc2ccc(N3CCC(c4ccc(OCCN5CCN(C)C(=O)[C@H]5C)cc4)CC3)nn12` [AZD5153] + CC1(C)CCC(CN2CCN(c3ccc(C(=O)NS(=O)(=O)c4ccc(NCC5CCOCC5)c([N+](=O)[O-])c4)c(Oc4cnc5[nH]ccc5c4)c3)CC2)=C(c2ccc(Cl)cc2)C1 [Venetoclax] (first compound max 1 µM, 7x7, partner max 1 µM), the Bliss excess was -0.0699 in [1]; -0.0568 in test [2]; -0.0775 in test [3]; -0.0959 in test [4]; -0.051 in test [5]; -0.0804 in test [6]. In addition, the Bliss excess in [7] is -0.0818; in test [8], -0.0605; in test [9], 0.0014; in test [10], -0.132; in test [11], -0.0815; in test [12], -0.0198. In addition, the Bliss excess in [13] is -0.068; in [14], -0.0381; in test [15], 0.0122; in [16], -0.0678; in test [17] it was -0.0456; in [18] it was 0.0517. The Bliss excess was -0.095 in [19] and -0.0792 in test [20].

As to `COc1nnc2ccc(N3CCC(c4ccc(OCCN5CCN(C)C(=O)[C@H]5C)cc4)CC3)nn12` [AZD5153] + CCN(CCO)CCCOc1ccc2c(Nc3cc(CC(=O)Nc4cccc(F)c4)[nH]n3)ncnc2c1 [AZD2811] (first compound max 1 µM, 7x7, partner max 1 µM), the Bliss excess was -0.0837 in test [1]; -0.0417 in [2]; -0.0523 in test [3]; -0.0625 in [4]; -0.0335 in test [5]; -0.0689 in [6]. For the same molecule, the Bliss excess in test [7] was -0.0181; in test [8], -0.0282; in test [9], -0.0185; in [10] it was 0.0112; in test [11], -0.0581; in [12] it was 0.0277. For the same molecule, the Bliss excess was -0.0086 in test [13]; -0.0087 in test [14]; -0.0355 in [15]; -0.0025 in test [16]; -0.0401 in [17]; -0.0341 in [18]. In addition, the figures for the Bliss excess in [19] and in test [20] were -0.0238 and -0.0065, respectively.

Take `COc1nnc2ccc(N3CCC(c4ccc(OCCN5CCN(C)C(=O)[C@H]5C)cc4)CC3)nn12` [AZD5153] + C[C@@H]1COCCN1C2=NC(=NC(=C2)C3(CC3)[S@](=N)(=O)C)C4=C5C=CNC5=NC=C4 [AZD6738] (first compound max 1 µM, 7x7, partner max 10 µM): the Bliss excess was -0.0501 in [1]; -0.0048 in [2]; -0.0427 in [3]; -0.0078 in test [4]; -0.0383 in [5]; -0.0737 in test [6]. In addition, the Bliss excess in test [7] was 0.0003; in test [8] it was 0.0023; in [9], 0.0009; in test [10], 0.0125; in test [11], -0.0516; in test [12], 0.0394. For the same molecule, the Bliss excess is 0.0041 in test [13]; -0.0534 in test [14]; -0.0116 in [15]; -0.117 in test [16]; -0.0462 in [17]; -0.0114 in test [18]. Besides, the Bliss excess came out at 0.0406 in test [19] and 0.002 in test [20].

Turning to `COc1nnc2ccc(N3CCC(c4ccc(OCCN5CCN(C)C(=O)[C@H]5C)cc4)CC3)nn12` [AZD5153] + Cc1c2c(nn1C)CSCc1cc(n(C)n1)CSc1cc(c3ccccc3c1)OCCCc1c(C(=O)O)n(C)c3c-2c(Cl)ccc13 [AZD5991] (first compound max 1 µM, 7x7, partner max 1 µM), the Bliss excess in [1] was -0.0082; in test [2] it was -0.0231; in test [3], -0.0711; in test [4], 0.0312; in test [5] it was -0.0229; in test [6], -0.0787. The Bliss excess in [7] was -0.0101; in [8] it was -0.0412; in test [9], -0.0001; in test [10], -0.03; in [11], -0.0426; in test [12] it was 0.0492. In addition, the Bliss excess in test [13] is 0.0165; in test [14], 0.0437; in test [15] it was 0.0582; in test [16] it was -0.044; in test [17] it was -0.0106; in test [18] it was 0.0112. Further, the results for the Bliss excess in test [19] and in test [20] were 0.0415 and -0.0164, respectively.
